These results are taken from PMC6158578, “Optimization and Lead Selection of Benzothiazole Amide Analogs Toward a Novel Antimycobacterial Agent” (Frontiers in Microbiology, 2018).

Data set [1] deals with M. abscessus massiliense 119. Kind of data set: MIC, broth microdilution with resazurin (MHB, 3 days). In kind it is cell-based. To be noted: Mycobacteroides abscessus; M. abscessus massiliense 119; read-out: MIC. Background: Broth dilution looks for growth in wells or tubes with falling amounts of substance.
The subject of data set [2] is M. peregrinum ATCC 700686. The description is as above. In kind it is cell-based. To be noted: Mycolicibacterium peregrinum, ATCC700686; M. peregrinum ATCC 700686; read-out: MIC.
Data set [3] relates to CYP3A. Kind of data set: CYP inhibition in human liver microsomes. In kind it is in vitro ADME. The protocol:
(§1) ADMET assays were performed through NIAID Preclinical Services and Eurofins. Potential for cytotoxicity was monitored in HepG2 cells after 72 h growth in the presence of test compounds, either prepared as 10-point 3-fold serial dilutions or at a fixed 10 μM concentration. Cell viability was measured using the CellTiter-Glo® Luminescent Cell Viability Assay (Promega) or via fluorescent image analysis. Cytotoxicity was expressed as IC50 or as percent reduction of viable cells relative to a reference compound. Metabolic stability of compounds was evaluated via incubation with human liver microsomes at 37°C and quantitative analysis of parent compound by LC-MS/MS in samples removed at 0, 5, 15, 30, and 45 min (Obach, [1999]). For cytochrome P450 (CYP) inhibition assays, compounds were prepared as a 7-point dilution series and incubated with human liver microsomes in buffer containing 2 mM NADPH and probe substrate. […] Thermodynamic solubility of compounds in aqueous media was determined by incubation in 50 mM potassium phosphate buffer (pH 7.4) for 24 h, followed by HPLC-UV detection of compound in the filtrate (Analiza, Cleveland, OH, United States).
(In general: Microsomes from liver hold many membrane-bound enzymes, among them those of drug oxidation.)

The target of data set [4] is T1, CYP2B6 (Homo sapiens, UniProt P20813).
T1 construct: incubated with human liver microsomes in buffer containing 2 mM NADPH and probe substrate; from tissue; host or cells: human liver microsomes
T1 sequence (P20813 1-491): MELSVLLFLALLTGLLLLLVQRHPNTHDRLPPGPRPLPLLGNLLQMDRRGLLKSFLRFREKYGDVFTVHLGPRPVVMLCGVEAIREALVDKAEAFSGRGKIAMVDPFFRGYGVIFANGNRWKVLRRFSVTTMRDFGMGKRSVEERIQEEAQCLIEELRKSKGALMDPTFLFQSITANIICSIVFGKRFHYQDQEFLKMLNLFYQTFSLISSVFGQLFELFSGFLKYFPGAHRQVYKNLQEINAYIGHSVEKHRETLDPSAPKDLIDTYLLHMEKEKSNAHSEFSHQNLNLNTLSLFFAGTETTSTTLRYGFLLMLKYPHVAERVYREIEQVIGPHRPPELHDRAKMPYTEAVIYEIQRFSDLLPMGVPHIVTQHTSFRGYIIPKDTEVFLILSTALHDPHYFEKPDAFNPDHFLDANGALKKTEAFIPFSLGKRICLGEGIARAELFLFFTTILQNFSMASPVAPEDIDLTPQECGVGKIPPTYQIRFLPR
Kind of data set: CYP inhibition in human liver microsomes. It is filed as in vitro ADME. The protocol:
as §1

Data set [5] has as its system Intracellular Mtb. The experiment in a line: microbe, parasite or virus in culture. In kind it is cell-based, M. tuberculosis. To be noted: Mycobacterium tuberculosis.
Data set [6] has as its system M. abscessus 79. Kind of data set: MIC in MHB versus 7H9+OADC. In kind it is cell-based.
Data set [7] has as its system M. chelonae (n = 11) clinical isolates. The experiment in a line: MIC against rapid-growing NTM clinical isolates. In kind it is cell-based. To be noted: M. chelonae (n = 11).
The test system of data set [8] is mycolic acid transfer in Mabs ATCC19977. The experiment in a line: Metabolic labeling with [14C]acetate. It is filed as cell-based, M. abscessus. To be noted: 2x and 10x MIC.

Converted amounts (≈) assume the structure as drawn. Bounds are passed on as bounds.

With `CC12CC3CC(C)(C1)CC(C(=O)Nc1nc4ccc(OC(F)(F)F)cc4s1)(C3)C2` [CRS400226], the MIC in data set [1] was 0.25 µg/mL (≈ 0.589 µM); in data set [2], at most 0.06 µg/mL; in data set [6] (M. abscessus 79, 7H9 + OADC (5 mg/mL albumin)) it was 2 µg/mL; in data set [6] (M. abscessus 79, MHB), 0.25 µg/mL (≈ 0.589 µM). The inhibition at 10 µM in data set [3] and in data set [4] was below 50% throughout. The same compound displayed an IC90 in data set [5] of 0.8 µg/mL (≈ 1.88 µM). Further, the MIC range in data set [7] is listed as 0.5–0.5 μg/mL. The MIC90 in data set [7] (Mycobacteroides chelonae, read-out: MIC90) came to 0.5 µg/mL (≈ 1.18 µM). Also, the “effect on mycolic acid transfer to arabinogalactan and trehalose dimycolates” value in data set [8] is “concentration-dependent inhibition of mycolic acid transfer”.

One may read the MIC as the least concentration at which growth counts as inhibited. Broadly, the inhibition is the percentage by which the read-out fell short of the control. A low value points to a response near the control. By IC90 is commonly meant the concentration at which the effect reaches the 90% level. Lower therefore signals greater potency. In general, MIC90 refers to the lowest concentration that inhibits either 90% of growth or 90% of the strains tested, depending on the study.
